“Also recorded” adds a separate entry of the source.
Columns and labels:
[1] = system: human iPSC-derived kidney organoids; assay: Confocal imaging of PECAM1+ vasculature around NPHS1+ or WT1+ glomerular structure in kidney organoids; type: cell-based; details: Protocol B: VEGF (days 6, 9, 12, 14) and 10 μM Compound 1 (day 12) added together to Protocol A; FIG. 2A
Method: While Protocol B was largely similar to Protocol A, to enhance a vascular network, VEGF (10 ng/ml, 20 ng/ml, 30 ng/ml, and 50 ng/ml each) was treated on days 6, 9, 12, and 14, and to enhance podocyte differentiation, 10 μM Compound 1 was treated on day 12. For immunofluorescent analysis, organoids were fixed on day 18 unless otherwise noted. Specifically, for fixation, equal volumes of PBS (Thermo Fisher Scientific) and 8% paraformaldehyde (Electron Microscopy Sciences) were added to a medium for 15 minutes, and then the sample was washed with PBS three times. Subsequently, the fixed organoid culture was blocked with 5% donkey serum (Millipore)+0.3% Triton-X-100/PBS. Afterward, the blocked organoid culture was incubated in PBS containing 3% bovine serum albumin (Sigma)+ primary antibodies [anti-acetylated tubulin (Sigma-Aldrich T7451, 1:200), anti-collagen IV (Southern Biotech 1340-01, 1:300), anti-cytokeratin 8 (Abcam ab9023, 1:200), anti-GATA3 (R&D AF2605, 1:200), anti-Gb3 (TCI […], 1:200), anti-GLA (Thermo Fisher Scientific PA5-27349, 1:1000), anti-laminin (Sigma-Aldrich L9393. 1:200), anti-LTL (Vector Labs FL-1321, 1:200 dilution), […]32 (BD Pharmingen 555849, 1:200), anti-NPHS1 ([…] (Abcam ab9498, 1:200), anti-TUBA4A (Abcam ab24610, 1:200), and anti-WT1 (Abcam ab89901, 1:200)] overnight, washed, and then incubated with Alexa Fluor secondary antibodies (Invitrogen). […]

[2] = system: GLA mutant kidney organoids; assay: Immunofluorescent staining of Gb3 (Gb3 positive area) in GLA mutant kidney organoids; type: cell-based, human; details: GLA mutant kidney organoids (Protocol B) after treatment with agalsidase-α (ERT); FIGS. 4D and 4E
Method: For immunofluorescent analysis, organoids were fixed on day 18 unless otherwise noted. Specifically, for fixation, equal volumes of PBS (Thermo Fisher Scientific) and 8% paraformaldehyde (Electron Microscopy Sciences) were added to a medium for 15 minutes, and then the sample was washed with PBS three times. Subsequently, the fixed organoid culture was blocked with 5% donkey serum (Millipore)+0.3% Triton-X-100/PBS. Afterward, the blocked organoid culture was incubated in PBS containing 3% bovine serum albumin (Sigma)+ primary antibodies [anti-acetylated tubulin (Sigma-Aldrich T7451, 1:200), anti-collagen IV (Southern Biotech 1340-01, 1:300), anti-cytokeratin 8 (Abcam ab9023, 1:200), anti-GATA3 (R&D AF2605, 1:200), anti-Gb3 (TCI A2506, 1:200), anti-GLA (Thermo Fisher Scientific PA5-27349, 1:1000), anti-laminin (Sigma-Aldrich L9393. 1:200), anti-LTL (Vector Labs FL-1321, 1:200 dilution), antiMECA32 (BD Pharmingen 555849, 1:200), anti-NPHS1 (R&D AF4269, 1:200), anti-Pecaml (Abcam ab9498, 1:200), anti-TUBA4A (Abcam ab24610, 1:200), and anti-WT1 (Abcam ab89901, 1:200)] overnight, washed, and then incubated with Alexa Fluor secondary antibodies (Invitrogen). Afterward, the resulting organoids were washed and stained with DAPI, or mounted using Vectashield H-1000. Images were obtained using a Zeiss LSM 700 confocal microscope (Carl Zeiss, Germany) and ZEN 3.1 software. […]

[3] = system: GLA mutant kidney organoids; assay: Immunofluorescent staining of NPHS1, PECAM1 and LTL: vasculopathy phenotype in GLA mutant kidney organoids; type: cell-based, human; details: GLA mutant kidney organoids produced by Protocol B, ERT; FIG. 4F
Method: For immunofluorescent analysis, organoids were fixed on day 18 unless otherwise noted. Specifically, for fixation, equal volumes of PBS (Thermo Fisher Scientific) and 8% paraformaldehyde (Electron Microscopy Sciences) were added to a medium for 15 minutes, and then the sample was washed with PBS three times. Subsequently, the fixed organoid culture was blocked with 5% donkey serum (Millipore)+0.3% Triton-X-100/PBS. […]
Next, the phenotype of the vasculopathy in Fabry disease was determined using GLA mutant kidney organoids produced by Protocol B. Immunofluorescent staining analyses of NPHS1, PECAM1, and LTL were conducted on the wild type, GLA mutant kidney organoids, and human recombinant agalsidase-α-treated GLA mutant kidney organoids.

| Molecule | vascularization surrounding the glomerular structure [1] | Gb3 accumulation [2] | vascular network (glomerular angiogenesis and formation of large lumen vessels) [3] |
| --- | --- | --- | --- |
| NC(=O)c1ccc(-c2nc(-c3ccc4c(c3)OCO4)c(-c3ccccn3)[nH]2)cc1 [Compound 1, 4-[4-(1,3-benzodioxol-5-yl)-5-pyridin-2-yl-1H-imidazol-2-yl]benzamide, reference compound] | significantly improved |  |  |
| VEGF | significantly improved |  |  |
| agalsidase-α: recombinant human agalsidase-α used as recombinant enzyme replacement therapy (ERT) (protein, UniProt P06280 32-429, looked up) Alpha-galactosidase A: LDNGLARTPTMGWLHWERFMCNLDCQEEPDSCISEKLFMEMAELMVSEGWKDAGYEYLCIDDCWMAPQRDSEGRLQADPQRFPHGIRQLANYVHSKGLKLGIYADVGNKTCAGFPGSFGYYDIDAQTFADWGVDLLKFDGCYCDSLENLADGYKHMSLALNRTGRSIVYSCEWPLYMWPFQKPNYTEIRQYCNHWRNFADIDDSWKSIKSILDWTSFNQERIVDVAGPGGWNDPDMLVIGNFGLSWNQQVTQMALWAIMAAPLFMSNDLRHISPQAKALLQDKDVIAINQDPLGKQGYQLRQGDNFEVWERPLSGLAWAVAMINRQEIGGPRSYTIAVASLGKGVACNPACFITQLLPVKRKLGFYEWTSRLRSHINPTGTVLLQLENTMQMSLKDLL |  | decreased | restored the vascular network; also recorded: restored a vascular network |
